Assay [1] addresses T1, Estrogen receptor (Homo sapiens, UniProt P03372).
T1 sequence (P03372 whole entry): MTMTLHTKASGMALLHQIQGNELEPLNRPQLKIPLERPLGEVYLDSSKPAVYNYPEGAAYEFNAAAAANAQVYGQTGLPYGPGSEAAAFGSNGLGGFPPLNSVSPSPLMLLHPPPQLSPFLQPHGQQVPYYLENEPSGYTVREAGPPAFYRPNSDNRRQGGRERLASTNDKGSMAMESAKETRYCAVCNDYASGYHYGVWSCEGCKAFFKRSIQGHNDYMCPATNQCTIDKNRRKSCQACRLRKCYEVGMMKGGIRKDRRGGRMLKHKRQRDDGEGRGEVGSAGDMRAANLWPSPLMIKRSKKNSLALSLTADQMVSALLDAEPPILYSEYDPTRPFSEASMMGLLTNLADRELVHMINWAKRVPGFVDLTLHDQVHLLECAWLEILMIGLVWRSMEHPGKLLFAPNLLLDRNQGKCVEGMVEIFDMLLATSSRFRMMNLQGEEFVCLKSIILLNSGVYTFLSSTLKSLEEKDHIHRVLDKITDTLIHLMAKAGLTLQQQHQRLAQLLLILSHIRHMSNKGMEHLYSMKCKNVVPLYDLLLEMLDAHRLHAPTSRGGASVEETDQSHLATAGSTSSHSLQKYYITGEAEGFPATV
Description: Binding affinity for human Estrogen receptor alpha

Assay [2] deals with Estrogen receptor beta (Homo sapiens, UniProt Q92731).
Description: Binding affinity for human Estrogen receptor beta

SMILES strings stand for the structures. Where only a bound is given, the exact number is not on record here.

The term IC50 denotes the concentration that gives 50% inhibition. Low readings indicate higher potency, high ones lower potency.

Chain of Estrogen receptor beta (Q92731 whole entry): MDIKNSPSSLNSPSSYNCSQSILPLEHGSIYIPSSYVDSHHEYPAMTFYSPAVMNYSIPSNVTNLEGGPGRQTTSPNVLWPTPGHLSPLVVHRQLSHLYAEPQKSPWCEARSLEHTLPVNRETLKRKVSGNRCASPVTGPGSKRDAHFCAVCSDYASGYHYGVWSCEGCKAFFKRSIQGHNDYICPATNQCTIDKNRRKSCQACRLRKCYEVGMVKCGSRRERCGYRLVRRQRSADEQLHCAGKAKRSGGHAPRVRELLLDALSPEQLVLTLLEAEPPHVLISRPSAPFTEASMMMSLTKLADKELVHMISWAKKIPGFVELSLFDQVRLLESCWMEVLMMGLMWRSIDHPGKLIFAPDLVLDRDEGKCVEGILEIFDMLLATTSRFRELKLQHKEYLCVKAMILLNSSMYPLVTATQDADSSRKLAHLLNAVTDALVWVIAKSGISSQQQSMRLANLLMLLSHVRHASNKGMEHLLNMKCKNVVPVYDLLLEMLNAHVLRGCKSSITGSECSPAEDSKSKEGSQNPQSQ

Turning to `Oc1ccc(-c2ccc3cc(O)ccc3n2)cc1`, the figures for the half-maximal inhibitory concentration (IC50) in assay [1] and in assay [2] were 1780 nM and 171 nM, respectively.
Taken in the same sequence, the figures for `Oc1ccc2nc(-c3ccc(O)c(F)c3)cc(-c3ccccc3)c2c1` were 1810 nM and 211 nM.
In the case of `CCc1cc(-c2ccc(O)c(F)c2)nc2ccc(O)cc12`, the IC50 in assay [1] was found to be 1750 nM; in assay [2], 79 nM.
Taken in the same sequence, the figures for `CCc1cc(-c2ccc(O)cc2)nc2ccc(O)cc12` were 634 nM and 52 nM.
In the case of `C#Cc1cc(-c2ccc(O)cc2)nc2ccc(O)cc12`, the IC50 in assay [2] amounted to 75 nM.
For `C#Cc1cc(-c2ccc(O)c(F)c2)nc2ccc(O)cc12`, the half-maximal inhibitory concentration (IC50) in assay [1] stood at 1310 nM; in assay [2], 27 nM.
As for `CC(=O)c1cc(-c2ccc(O)cc2)nc2ccc(O)cc12`, the half-maximal inhibitory concentration (IC50) came to 3140 nM in assay [1] and 221 nM in assay [2].
In the case of `Oc1ccc(-c2ccc3c(Cl)c(O)ccc3n2)cc1`, the IC50 in assay [1] amounted to 632 nM; in assay [2] it was 30 nM.
For `Oc1ccc2nc(-c3cc(F)c(O)c(F)c3)cc(Br)c2c1`, in that order: 783 nM and 36 nM.
Taken in the same sequence, the figures for `CC(O)c1cc(-c2ccc(O)c(F)c2)nc2ccc(O)cc12` (stereo not drawn) were > 5000 nM and > 5000 nM.
In the case of `Oc1ccc(-c2ccc3c(Br)c(O)ccc3n2)cc1`, the IC50 was 1140 nM in assay [1] and 88 nM in assay [2].
For `C=Cc1cc(-c2ccc(O)c(F)c2)nc2ccc(O)cc12`, in that order: 385 nM and 44 nM.

Values taken from ChEMBL document CHEMBL1140390, “ERbeta ligands. Part 4: Synthesis and structure-activity relationships of a series of 2-phenylquinoline derivatives” (Bioorg Med Chem Lett, 2005).
